In patent US11071731B2, “Allosteric modulators of the mu opioid receptor” (Chiromics, LLC, priority 2017, dated 2021):
pEC50: −log10 of the molar value.

Tests used:
[1] = biological target: T1, mu opioid receptor (MOR) (Homo sapiens, UniProt P35372); experiment: PathHunter β-arrestin recruitment assay, PAM mode with EC20 endomorphin-1; assay type: cell-based; details: for pEC50: read-out: β-arr. EC50
Experimental: The effects of MOR PAMs and MOR SAMs on receptor activity were assayed using the PathHunter enzyme complementation assay technology (DiscoveRx, CA). A description of the technology employed is as follows.
Beta-Arrestin Pathway: The PathHunter β-arrestin assay monitors the activation of a GPCR in a homogenous, non-imaging assay format using a technology developed by DiscoveRx called Enzyme Fragment Complementation (EFC) with beta-galactosidase (β-Gal) as the functional reporter. […] EA is fused to β-Arrestin and ED is fused to the GPCR of interest. When the GPCR is activated and β-arrestin is recruited to the receptor, ED and EA complementation occurs, restoring β-gal activity, which is measured using chemiluminescent PathHunter Detection Reagents.
In this manner an EC50 for each test compound, and percent maximal response for each test compound, were determined for both the β-arrestin and cAMP pathways. Though the pharmacological effects of a given signal bias can be hypothesized (Raehal et al. (2011) Pharmacol. Rev. 63:1001-1019), it is not possible to know with certainty which bias ratio will be most advantageous in a clinical setting. […] Kenakin 2015a, supra. The information associated with the compounds detailed herein is the first large data set available for the prediction of ligand bias for an MOR PAM.

[2] = biological target: T1, mu opioid receptor (MOR); experiment: Hit Hunter cAMP signaling assay (adenylyl cyclase inhibition), PAM mode with EC20 endomorphin-1; assay type: cell-based
[3] = maximal response for β-arrestin recruitment
[4] = adenylyl cyclase inhibition, read-out: cAMP EC50
[5] = maximal response for adenylyl cyclase inhibition
[6] = cAMP EC50, adenylyl cyclase inhibition

T1 sequence (P35372 whole entry): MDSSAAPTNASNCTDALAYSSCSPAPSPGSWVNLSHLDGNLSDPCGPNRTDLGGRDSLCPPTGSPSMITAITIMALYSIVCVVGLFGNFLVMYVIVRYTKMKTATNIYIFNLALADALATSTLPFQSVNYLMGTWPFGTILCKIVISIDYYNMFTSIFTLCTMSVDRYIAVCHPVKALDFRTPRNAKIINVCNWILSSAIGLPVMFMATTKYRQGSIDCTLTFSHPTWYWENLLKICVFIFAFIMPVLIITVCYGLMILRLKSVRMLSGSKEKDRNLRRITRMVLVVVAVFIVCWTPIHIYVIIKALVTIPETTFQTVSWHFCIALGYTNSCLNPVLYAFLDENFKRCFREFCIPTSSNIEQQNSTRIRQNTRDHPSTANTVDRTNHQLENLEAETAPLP

Structure (SMILES) | β-arr Max. Resp. [1, 3] | pEC50 ([1]; β-arrestin recruitment) | pEC50 [2, 4] | cAMP Max. Resp. [2, 5] | pEC50 [2, 6] | β-arr Max. Resp. ([1]; maximal response, β-arrestin recruitment) | cAMP Max. Resp. ([2]; maximal response, adenylyl cyclase inhibition)
COc1ccc(C2C(C(F)(F)F)CCN2S(=O)(=O)c2ccc(Cl)cc2)cc1Br (mixture of isomers) [Compound 90] | D (D represents a maximal response of < 40%) | < 5.68 | < 5.68 | D (D represents a maximal response of < 40%) | – | – | –
FC(F)(F)c1cccc(C2CCCCN2Cc2ccc(Cl)c(Cl)c2)n1 (stereo not shown) [compound 153] | F (F represents a maximal response of > 60%) | < 5.68 | – | D (D represents a maximal response of < 40%) | < 5.68 | – | –
O=S(=O)(c1ccc(Cl)cc1)N1CCCCC1c1cccc(C(F)(F)F)n1 (stereo not shown) [compound 3] | F (F represents a maximal response of > 60%) | > 6.15 | – | F (F represents a maximal response of > 60%) | > 6.15 | – | –
O=S(=O)(c1ccc(Cl)cc1)N1CCCCC1c1cccc(Cl)c1 (racemic) [compound 61] | F (F represents a maximal response of > 60%) | < 5.68 | < 5.68 | E (E represents a maximal response of 40-60%) | – | – | –
Fc1cc(C2COCCN2c2nc(Cl)ncc2F)cc(C(F)(F)F)c1 (racemic) [Compound 190] | F (F represents a maximal response of > 60%) | 5.68 to 6.15 | > 6.15 | F (F represents a maximal response of > 60%) | – | – | –
Cc1c(C2CCCCN2c2nc(Cl)ncc2F)cccc1C(F)(F)F (stereo not shown) [compound 135] | F (F represents a maximal response of > 60%) | 5.68 to 6.15 | – | D (D represents a maximal response of < 40%) | > 6.15 | – | –
Cn1cnc2cc(C(F)(F)F)cc(C3CCCCN3c3nc(Cl)ncc3F)c21 (stereo not shown) [compound 300] | E (E represents a maximal response of 40-60%) | < 5.68 | – | F (F represents a maximal response of > 60%) | < 5.68 | – | –
Fc1cnc(Cl)nc1C1CCCCN1c1nc(Cl)ncc1F (stereo not shown) [compound 357] | D (D represents a maximal response of < 40%) | > 6.15 | – | D (D represents a maximal response of < 40%) | > 6.15 | – | –
Fc1cccc(C2CCCCN2c2nccc(Cl)n2)n1 (stereo not shown) [compound 260] | D (D represents a maximal response of < 40%) | < 5.68 | – | D (D represents a maximal response of < 40%) | < 5.68 | – | –
Fc1ccc(C2CCCCN2c2nc(Cl)ncc2F)cc1Br (stereo not shown) [compound 124] | F (F represents a maximal response of > 60%) | > 6.15 | – | E (E represents a maximal response of 40-60%) | > 6.15 | – | –
O=C1CCN(c2nc(Cl)ncc2F)C(c2cc(F)cc(C(F)(F)F)c2)C1 (stereo not shown) [compound 238] | E (E represents a maximal response of 40-60%) | < 5.68 | – | D (D represents a maximal response of < 40%) | < 5.68 | – | –
Fc1ccc(Cl)nc1N1CCCCC1c1cncc(Cl)n1 (stereo not shown) [compound 395] | D (D represents a maximal response of < 40%) | > 6.15 | > 6.15 | D (D represents a maximal response of < 40%) | – | – | –
Fc1cc(C2CCCCN2c2nc(Cl)ncc2F)ccc1Br (stereo not shown) [compound 290] | F (F represents a maximal response of > 60%) | > 6.15 | – | D (D represents a maximal response of < 40%) | > 6.15 | – | –
Fc1cnc(Cl)nc1N1CCCCC1c1ccc(Cl)c(C(F)(F)F)c1 (stereo not shown) [compound 128] | F (F represents a maximal response of > 60%) | > 6.15 | – | E (E represents a maximal response of 40-60%) | 5.68 to 6.15 | – | –
O=S(=O)(c1ccc(Cl)cc1)N1CCCCC1c1ccc(F)c(F)c1 (racemic) [compound 75] | F (F represents a maximal response of > 60%) | 5.68 to 6.15 | > 6.15 | E (E represents a maximal response of 40-60%) | – | – | –
CN1CCN(c2nc(Cl)ncc2F)C(c2cc(F)cc(C(F)(F)F)c2)C1 (racemic) [Compound 305] | F (F represents a maximal response of > 60%) | 5.68 to 6.15 | 5.68 to 6.15 | F (F represents a maximal response of > 60%) | – | – | –
COc1ccc(C2CCCCN2S(=O)(=O)c2ccc(C)cc2)cc1Br (stereo not shown) [compound 12] | F (F represents a maximal response of > 60%) | < 5.68 | – | E (E represents a maximal response of 40-60%) | 5.68 to 6.15 | – | –

Structure (SMILES) | β-arr Max. Resp. [1, 3] | pEC50 ([1]; β-arrestin recruitment) | pEC50 [2, 4] | cAMP Max. Resp. [2, 5] | pEC50 [2, 6] | β-arr Max. Resp. ([1]; maximal response, β-arrestin recruitment) | cAMP Max. Resp. ([2]; maximal response, adenylyl cyclase inhibition)
Fc1ccc(C2C(F)CCCN2c2nc(Cl)ncc2F)cc1Br (stereo not shown) [compound 210] | F (F represents a maximal response of > 60%) | < 5.68 | – | E (E represents a maximal response of 40-60%) | 5.68 to 6.15 | – | –
Fc1cnc(Cl)nc1N1CCCCC1c1cccc(C(F)(F)F)c1 (stereo not shown) [compound 7] | F (F represents a maximal response of > 60%) | > 6.15 | – | F (F represents a maximal response of > 60%) | > 6.15 | – | –
Fc1cnc(Cl)nc1N1CCC(F)CC1c1cccc(C(F)(F)F)c1 (stereo not shown) [compound 197] | F (F represents a maximal response of > 60%) | 5.68 to 6.15 | – | F (F represents a maximal response of > 60%) | 5.68 to 6.15 | – | –
COc1ccc(C2CCCCN2c2cncc(Cl)n2)cc1Br (stereo not shown) [compound 229] | F (F represents a maximal response of > 60%) | < 5.68 | – | F (F represents a maximal response of > 60%) | < 5.68 | – | –
FC(F)(F)c1cccc(C2CCCCN2Cc2cc(Cl)cc(Cl)c2)n1 (stereo not shown) [compound 159] | F (F represents a maximal response of > 60%) | 5.68 to 6.15 | – | E (E represents a maximal response of 40-60%) | 5.68 to 6.15 | – | –
Fc1cnc(Cl)nc1N1CCCCC1c1cccc(Cl)c1F (stereo not shown) [compound 369] | D (D represents a maximal response of < 40%) | > 6.15 | – | D (D represents a maximal response of < 40%) | > 6.15 | – | –
O=S(=O)(Cc1ccccc1Cl)N1C2CCC(C2)C1c1ccc(F)c(Br)c1 (stereo not shown) [Compound 183] | E (E represents a maximal response of 40-60%) | < 5.68 | < 5.68 | D (D represents a maximal response of < 40%) | – | – | –
Cc1ccc(C2C(C)CCN2S(=O)(=O)c2ccc(Cl)cc2)cc1Br (mixture of isomers) [Compound 104] | F (F represents a maximal response of > 60%) | 5.68 to 6.15 | 5.68 to 6.15 | D (D represents a maximal response of < 40%) | – | – | –
OC1CCN(c2nc(Cl)ncc2F)C(c2ccc(F)c(Br)c2)C1 (stereo not shown) [compound 241] | F (F represents a maximal response of > 60%) | < 5.68 | – | E (E represents a maximal response of 40-60%) | < 5.68 | – | –
COc1ccc(C2CC(F)(F)CN2c2nc(Cl)ncc2F)cc1Br (stereo not shown) [compound 466] | – | < 5.68 | < 5.68 | – | – | F (F represents a maximal response of > 60%) | D (D represents a maximal response of < 40%)
Fc1cc(C2CSCCN2c2nc(Cl)ncc2F)cc(C(F)(F)F)c1 (racemic) [Compound 301] | F (F represents a maximal response of > 60%) | 5.68 to 6.15 | > 6.15 | E (E represents a maximal response of 40-60%) | – | – | –
O=c1[nH]c2ccc(C3CCCCN3c3nc(Cl)ncc3F)cc2o1 (stereo not shown) [compound 279] | D (D represents a maximal response of < 40%) | < 5.68 | – | F (F represents a maximal response of > 60%) | < 5.68 | – | –
Cc1cnc(C2CCCCN2c2nc(Cl)ncc2F)o1 (stereo not shown) [compound 364] | D (D represents a maximal response of < 40%) | > 6.15 | – | D (D represents a maximal response of < 40%) | > 6.15 | – | –
Fc1cnc(Cl)nc1N1CCCCC1c1cc(F)c(F)c(F)c1 (stereo not shown) [compound 327] | D (D represents a maximal response of < 40%) | > 6.15 | – | D (D represents a maximal response of < 40%) | > 6.15 | – | –
COc1ccc(C2CCCCN2c2ccc(C(F)(F)F)cn2)cc1Br (stereo not shown) [compound 232] | F (F represents a maximal response of > 60%) | < 5.68 | – | F (F represents a maximal response of > 60%) | < 5.68 | – | –
CC1CCN(S(=O)(=O)c2ccc(Cl)cc2)C1c1ccc(OC(F)(F)F)c(Br)c1 (mixture of isomers) [Compound 94] | F (F represents a maximal response of > 60%) | > 6.15 | > 6.15 | D (D represents a maximal response of < 40%) | – | – | –
CN1CCN(c2nc(Cl)ncc2F)C(c2cccc(C(F)(F)F)c2)C1 (racemic) [Compound 282] | F (F represents a maximal response of > 60%) | 5.68 to 6.15 | 5.68 to 6.15 | D (D represents a maximal response of < 40%) | – | – | –
